The record followed here is patent US6008372A, “Substituted dinaphthylmethyl and diheteroarylmethylacetyl histidine inhibitors of protein farnesyltransferase” (Warner-Lambert Company, priority 1998, dated 1999).

SMILES strings stand for the structures. Structures can show the parent of a compound that is named as a salt. Where two headings read alike, the source gives them in different places.

Assay [1] concerns Ras farnesylation in H-ras-NIH3T3 cells. As to the kind of experiment: Gel shift assay: inhibition of Ras farnesylation in H-ras-NIH3T3 cells. It is filed as cell-based. To be noted: 18-hour incubation, read-out: Inhibition of Ras Farnesylation (Minimum Effective Dose). The procedure:
(§1) Twenty-four hours after planting 2×10^6 ras-transformed cells per treatment condition, the farnesylation inhibitor is added at varying concentrations. Following an 18-hour incubation period, cells are lysed in phosphate-buffered saline containing 1% Triton X-100, 0.5% sodium deoxycholate, and 0.1% SDS, pH 7.4 in the presence of several protease inhibitors (PMSF, antipain, leupeptin, pepstatin A, and aprotinin all at 1 μg/mL). Ras protein is immunoprecipitated from the supernatants by the addition of 3 μg v-H-ras Ab-2 (Y13-259 antibody from Oncogene Science). After overnight immunoprecipitation, 30 μL of a 50% protein G-Sepharose slurry (Pharmacia) is added followed by 45-minute incubation. Pellets are resuspended in 2× tris-glycine loading buffer (Novex) containing 5% B-mercaptoethanol and then denatured by 5 minutes boiling prior to electrophoresis on 14% Tris-glycine SDS gels. Using Western transfer techniques, proteins are transferred to nitrocellulose membranes followed by blocking in blocking buffer. Upon overnight incubation with primary antibody (pan-ras Ab-2 from Oncogene Science), an antimouse HRP conjugate secondary antibody (Amersham) is employed for detection of the ras protein. Blots are developed using ECL techniques (Amersham).
(§2) The data in Table 1 show farnesyl protein transferase inhibitory activity, and activity in the gel shift assay against ras protein of selected compounds of Formula I.

The target in assay [2] is T1, rat brain farnesyl protein transferase (Rattus norvegicus, UniProt Q02293+Q04631).
T1 construct: 40-fold purified rat brain farnesyl protein transferase; from tissue; host or cells: rat brain
In words: Protein:farnesyltransferase (PFT/FPT) inhibitory activity assay. In kind it is biochemical.

Assay [3] concerns Ras farnesylation in H-ras Me 12/+ cells. As to the kind of experiment: Gel shift assay: inhibition of Ras farnesylation in H-ras Me 12/+ cells. It is filed as cell-based. To be noted: 18-hour incubation, read-out: Inhibition of Ras Farnesylation (Minimum Effective Dose). How it is done: as §1, §2
Setting [4] is: Hepes (without 5 mM phosphate), read-out: Farnesyl Protein Transferase Inhibition, Hepes, IC50.
Where [5] appears, read: Hepes/5 mM PO4^-3, pH 7.4, read-out: Farnesyl Protein Transferase Inhibition, Hepes/5 mM PO4^-3, IC50.

Regarding `N#CCCNC(=O)[C@H](Cc1c[nH]cn1)NC(=O)C(Cc1cccc2ccccc12)Cc1cccc2ccccc12` [Example 41, (S)-N-[1-(2-Cyano-ethylcarbamoyl)-2-(1H-imidazol-4-yl)-ethyl]-3-naphthalen-1-yl-2-naphthalen-1-ylmethyl-propionamide], the minimal effective concentration in assay [1] was 5 µM. For the same molecule, the IC50 in assay [2] (setting [4]) amounted to 0.97 µM; in assay [2] (setting [5]) it was 0.71 µM.
Take `O=C(N[C@@H](Cc1c[nH]cn1)C(=O)OCCc1ccccc1)C(Cc1cccc2ccccc12)Cc1cccc2ccccc12` [Example 53, (S)-3-(1H-Imidazol-4-yl)-2-(3-naphthalen-1-yl-2-naphthalen-1-ylmethyl-propionylamino)-propionic acid, phenethyl ester]: the minimal effective concentration in assay [1] came out at 25 µM. In addition, the IC50 in assay [2] (setting [4]) was 0.07 µM; in assay [2] (setting [5]) it was 0.06 µM.
Regarding `CCCOC(=O)[C@H](Cc1c[nH]cn1)NC(=O)C(Cc1cccc2ccccc12)Cc1cccc2ccccc12` [Example 7, (S)-3-(1H-Imidazol-4-yl)-2-(3-naphthalen-1-yl-2-naphthalen-1-ylmethyl-propionylamino)-propionic acid, propyl ester], in assay [3], the minimal effective concentration was found to be 5 µM. For the same molecule, the figures for the IC50 in assay [2] (setting [4]) and in assay [2] (setting [5]) were 0.11 µM and 0.1 µM, respectively.
In the case of `COC(=O)[C@H](Cc1c[nH]cn1)N(C)C(=O)C(Cc1cccc2ccccc12)Cc1cccc2ccccc12` [Example 51, (S)-3-(1H-Imidazol-4-yl-2-[methyl-(3-naphthalen-1-yl-2-naphthalen-1-ylmethyl-propionyl)-amino]-propionic acid, methyl ester, trifluoroacetate], the minimal effective concentration in assay [1] was 5 µM. Also, the IC50 was determined as 2 µM in assay [2] (setting [4]) and 2.2 µM in assay [2] (setting [5]).
With `C=CCOC(=O)[C@H](Cc1c[nH]cn1)NC(=O)C(Cc1cccc2ccccc12)Cc1cccc2ccccc12` [Example 15, (S)-3-(1H-Imidazol-4-yl)-2-(3-naphthalen-1-yl-2-naphthalen-1-ylmethyl-propionylamino)-propionic acid, allyl ester], the minimal effective concentration in assay [1] amounted to 25 µM. Besides, the IC50 in assay [2] (setting [4]) was 0.4 µM; in assay [2] (setting [5]) it was 0.2 µM.
As to `COC(=O)[C@H](Cc1c[nH]cn1)NC(=O)C(Cc1ccccc1)Cc1cccc2ccccc12` (stereo partly drawn) [Example 65, (S)-2-(2-Benzyl-3-naphthalen-1-yl-propionylamino)-3-(1H-imidazol-4-yl)-propionic acid, methyl ester], in assay [1], the minimal effective concentration is 25 µM. In addition, the IC50 was determined as 1.6 µM in assay [2] (setting [4]) and 2.9 µM in assay [2] (setting [5]).
`COC(=O)[C@H](Cc1c[nH]cn1)NC(=O)C(CC1CCCC2CCCCC21)CC1CCCC2CCCCC21` (stereo partly drawn) [Example 36, (S)-2-[3-(Decahydro-naphthalen-1-yl)-2-(decahydro-naphthalen-1-ylmethyl)-propionylamino]-3-(1H-imidazol-4-yl)-propionic acid, methyl ester]: in assay [3], the minimal effective concentration came to 25 µM. In addition, the figures for the IC50 in assay [2] (setting [4]) and in assay [2] (setting [5]) were 0.31 µM and 0.37 µM, respectively.
Consider `O=C(N[C@@H](Cc1c[nH]cn1)C(=O)NCCOCc1ccccc1)C(Cc1cccc2ccccc12)Cc1cccc2ccccc12` [Example 23, (S)-N-[1-(2-Benzyloxy-ethylcarbamoyl)-2-(1H-imidazol-4-yl)-ethyl]-3-naphthalen-1-yl-2-naphthalen-1-ylmethyl-propionamide], for which the minimal effective concentration in assay [3] was found to be 5 µM. Further, the IC50 came to 0.74 µM in assay [2] (setting [4]) and 0.55 µM in assay [2] (setting [5]).
In the case of `O=C(N[C@H](CO)Cc1c[nH]cn1)C(Cc1cccc2ccccc12)Cc1cccc2ccccc12` [Example 52, (S)-N-[1-Hydroxymethyl-2-(1H-imidazol-4-yl)-ethyl]-3-naphthalen-1-yl-2-naphthalen-1-ylmethyl-propionamide], in assay [1], the minimal effective concentration worked out at 25 µM. The figures for the IC50 in assay [2] (setting [4]) and in assay [2] (setting [5]) were 3 µM and 3.4 µM, respectively.
In the case of `COC(=O)COC(=O)[C@H](Cc1c[nH]cn1)NC(=O)C(Cc1cccc2ccccc12)Cc1cccc2ccccc12` [Example 57, (S)-3-(1H-Imidazol-4-yl)-2-(3-naphthalen-1-yl-2-naphthalen-1-ylmethyl-propionylamino)-propionic acid, methoxycarbonylmethyl ester], the IC50 was 5.5 µM in assay [2] (setting [4]) and 4.1 µM in assay [2] (setting [5]).
As for `N#CCCOC(=O)[C@H](Cc1c[nH]cn1)NC(=O)C(Cc1cccc2ccccc12)Cc1cccc2ccccc12` [Example 17, (S)-3-(1H-Imidazol-4-yl)-2-(3-naphthalen-1-yl-2-naphthalen-1-ylmethyl-propionylamino)-propionic acid, 2-cyanoethyl ester], the minimal effective concentration in assay [1] turned out to be 10 µM. Moreover, the IC50 is 0.08 µM in assay [2] (setting [4]) and 0.07 µM in assay [2] (setting [5]).
`N#CCCCOC(=O)[C@H](Cc1c[nH]cn1)NC(=O)C(Cc1cccc2ccccc12)Cc1cccc2ccccc12` [Example 54, (S)-3-(1H-Imidazol-4-yl)-2-(3-naphthalen-1-yl-2-naphthalen-1-ylmethyl-propionyiamino)-propionic acid, 3-cyano-propyl ester]: the IC50 came out at 0.44 µM in assay [2] (setting [4]) and 0.37 µM in assay [2] (setting [5]).
In the case of `CCNC(=O)[C@H](Cc1c[nH]cn1)NC(=O)C(Cc1cccc2ccccc12)Cc1cccc2ccccc12` [Example 34, (S)-N-[1-Ethylcarbamoyl-2-(1H-imidazol-4-yl)-ethyl]-3-naphthalen-1-yl-2-naphthalen-1-ylmethyl-propionamide], the results for the IC50 in assay [2] (setting [4]) and in assay [2] (setting [5]) were 2.9 µM and 2 µM, respectively.
In the case of `CN(C)C(=O)[C@H](Cc1c[nH]cn1)NC(=O)C(Cc1cccc2ccccc12)Cc1cccc2ccccc12` [Example 43, (S)-N-[1-Dimethylcarbamoyl-2-(1H-imidazol-4-yl)-ethyl]-3-naphthalen-1-yl-2-naphthalen-1-ylmethyl-propionamide], the figures for the IC50 in assay [2] (setting [4]) and in assay [2] (setting [5]) were 5.6 µM and 3.8 µM, respectively.
The corresponding values for `NC(=O)[C@H](Cc1c[nH]cn1)NC(=O)C(Cc1cccc2ccccc12)Cc1cccc2ccccc12` [Example 24, (S)-N-[1-Carbamoyl-2-(1H-imidazol-4-yl)-ethyl]-3-naphthalen-1-yl-2-naphthalen-1-ylmethyl-propionamide] are 5.3 µM and 3.8 µM.
In the case of `OC[C@H](Cc1c[nH]cn1)NCC(Cc1cccc2ccccc12)Cc1cccc2ccccc12` [Example 62, (S)-3-(1H-Imidazol-4-yl)-2-(3-naphthalen-1-yl-2-naphthalen-1-ylmethyl-propylamino)-propan-1-ol], the IC50 in assay [2] (setting [4]) was 0.55 µM; in assay [2] (setting [5]), 0.5 µM.
With `O=C(N[C@@H](Cc1c[nH]cn1)C(=O)NCCc1c[nH]cn1)C(Cc1cccc2ccccc12)Cc1cccc2ccccc12` [Example 27, (S)-N-{2-(1H-Imidazol-4-yl)-1-[2-(1H-imidazol-4-yl)-ethylcarbamoyl]-ethyl}-3-naphthalen-1-yl-2-naphthalen-1-ylmethyl-propionamide], the minimal effective concentration in assay [3] was 10 µM. The figures for the IC50 in assay [2] (setting [4]) and in assay [2] (setting [5]) were 4.8 µM and 3.9 µM, respectively.
`CCCCOC(=O)[C@H](Cc1c[nH]cn1)NC(=O)C(Cc1cccc2ccccc12)Cc1cccc2ccccc12` [Example 9, (S)-3-(1H-Imidazol-4-yl)-2-(3-naphthalen-1-yl-2-naphthalen-1-ylmethyl-propionylamino)-propionic acid, butyl ester]: the figures for the IC50 in assay [2] (setting [4]) and in assay [2] (setting [5]) were 1.3 µM and 1.1 µM, respectively.
`CNC(=O)[C@H](Cc1c[nH]cn1)NCC(Cc1cccc2ccccc12)Cc1cccc2ccccc12` [Example 63, (S)-3-(1H-Imidazol-4-yl)-N-methyl-2-(3-naphthalen-1-yl-2-naphthalen-1-ylmethyl-propylamino)-propionamide]: the values for the IC50 in assay [2] (setting [4]) and in assay [2] (setting [5]) were 0.2 µM and 0.24 µM, respectively.
With `CCOC(=O)[C@H](Cc1c[nH]cn1)NC(=O)C(Cc1cccc2ccccc12)Cc1cccc2ccccc12` [Example 5, (S)-3-(1H-Imidazol-4-yl)-2-(3-naphthalen-1-yl-2-naphthalen-1-ylmethyl-propionylamino)-propionic acid, ethyl ester], the minimal effective concentration in assay [3] was 2.5 µM. Moreover, the IC50 in assay [2] (setting [4]) and in assay [2] (setting [5]) was 0.13 µM in each case.
As for `O=C(N[C@@H](Cc1c[nH]cn1)C(=O)O)C(Cc1cccc2ccccc12)Cc1cccc2ccccc12` [Example 3, (S)-3-(1H-Imidazol-4-yl)-2-(3-naphthalen-1-yl-2-naphthalen-1-ylmethyl-propionylamino)-propionic acid], the IC50 in assay [2] (setting [4]) is 1 µM; in assay [2] (setting [5]) it was 2.3 µM.
Consider `CCN(CC)CCNC(=O)[C@H](Cc1c[nH]cn1)NC(=O)C(Cc1cccc2ccccc12)Cc1cccc2ccccc12` [Example 32], for which the values for the IC50 in assay [2] (setting [4]) and in assay [2] (setting [5]) were 19 µM and 14 µM, respectively.
For the molecule `C=CCCOC(=O)[C@H](Cc1c[nH]cn1)NC(=O)C(Cc1cccc2ccccc12)Cc1cccc2ccccc12` [Example 48, (S)-3-(1H-Imidazol-4-yl)-2-(3-naphthalen-1-yl-2-naphthalen-1-ylmethyl-propionylamino)-propionic acid, but-3-enyl ester], the IC50 came out at 1.2 µM in assay [2] (setting [4]) and 1.3 µM in assay [2] (setting [5]).
